Patent US20090197921A1, “USE OF NICOTINE, ANALOGUES, THEREOF, PRECURSORS THEREOF OR D[…] IN THE TREATMENT OF VARIOUS PA[…] CAPABLE OF I[…] a-MSH AD[…] PROPHYLACTIC OR T[…]” (priority 2006, published 2009)

Assays:
[1] = Procedure: Patient they are in the ninth month of pregnant without diabetes or hypertension or neuropathy antecedents. […] Twenty four hours later Amikacina IM every 12 hours was administered. […] It was decided to administrate nicotine in watery vehicle by sublingual pathway in a concentration of 3 mg/ml.
At the beginning 15 drops were administrated and 30 minutes later 10 drops more. […] Nicotine was administrated during 4 weeks in dosis of 5 drops by sublingual pathway every three hours.

[2] = twenty four hours later
[3] = 2 drops sublingual every hour
From the text: Patient with post traumatic bleeding (hyphema). […] We indicated a dosis of 2 drops sublingual pathway every hour, for the hyphema was of 90% the vision was poor and the intraocular pressure was 40 mmHg despite last treatment. All medicine was suspended and began the new treatment.

[4] = cited from earlier work

CN1CCCC1c1cccnc1 (stereo not shown) [nicotine]
pain ([1]; nicotine 3 mg/ml in watery vehicle, sublingual, 15 drops then 10 drops 30 minutes later): diminished significantly
general physical state ([1]; nicotine 3 mg/ml sublingual): improves in the dramatic form
weight increase [2]: 80 grams
recovery ([3]; after four weeks): 90%
vision ([3]; three weeks later): 20/40

C/C(=N\N=C(N)N)c1cc(NC(=O)CCCCCCCCC(=O)Nc2cc(/C(C)=N/N=C(N)N)cc(/C(C)=N/N=C(N)N)c2)cc(/C(C)=N/N=C(N)N)c1.Cl.Cl.Cl.Cl [CNI-1493]
subyacent renal trauma by ischemia/reperfussion ([4]; in vivo): does not have effect
distant pulmonary trauma ([4]; renal ischemia/reperfussion): partialy reduces
